Results taken from US10647688B2, “Compounds, synthesis method thereof and use of same in medicine and in cosmetics” (GALDERMA RESEARCH & DEVELOPMENT, priority 2014, dated 2020).

How the values were obtained:
Assay type in all cases: cell-based
RARβ = target: T1, RARβ (Homo sapiens, UniProt P10826); assay: Transactivation reporter test (luciferase) in HeLa ERE Luc-hRAR cells, RARβ; conditions: for EC50: HeLa ERE Luc-hRAR cells, dose-response 10000 nM-0.04 nM, 18 hours incubation; for RARβ Comments: agonist type (total/partial); for RARβ Efficacy (%): normalized to basal control and maximum efficacy control CD0193 100 nM
T1 construct: expressed in transfected cells; line from Prof; Ballaguer, INSERM 439, Montpellier
T1 sequence (P10826 183-417 limits assumed): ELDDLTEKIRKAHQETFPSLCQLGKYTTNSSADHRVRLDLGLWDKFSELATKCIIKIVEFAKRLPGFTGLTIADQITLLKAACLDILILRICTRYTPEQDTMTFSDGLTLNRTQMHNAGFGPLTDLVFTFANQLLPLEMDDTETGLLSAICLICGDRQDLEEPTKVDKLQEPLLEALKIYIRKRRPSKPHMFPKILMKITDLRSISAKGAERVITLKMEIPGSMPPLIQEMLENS
Method: (§1) The activity of our molecules on the RAR is measured using a recombinant line expressing the ligand-biding domain (LBD) of RAR fused with the DNA binding domain (DBD) of the estrogen receptors. The specific transactivation of the receptor on the receptor estrogen response element (ERE) leads to transcription of luciferase. The expression of this reporter gene is quantified by luminescence after addition of its substrate, luciferin.
(§2) This line was produced by Prof. Ballaguer (INSERM 439, Montpellier) after stable transfection of HeLa by ERE-βGlob-Luc-SV-Neo and RAR(α, β, γ)-ER-DBD-puro plasmids.
(§3) The compounds are evaluated by dose-response (10000 nM-0.04 nM) normalized relative to a basal control and a maximum efficacy control (CD0193, reference agonist with 100 nM saturating concentration): Y=((X−0%)/(100%−0%))*100.
(§4) The affinity (EC50 in nM) and efficacy (in %) are measured using the XLfit (IDBS) software according to a four-parameter nonlinear regression (model 205).
(§5) HeLa ERE Luc-hRAR cells are inoculated on 96 well microplates (10,000 cell/100 μL). After 4 hours of incubation at 37° C./5% CO2, they are treated with 5 μL of 20× products (0.1 final DMSO).

RARα = target: T2, RARα (Homo sapiens, UniProt P10276); assay: Transactivation reporter test (luciferase) in HeLa ERE Luc-hRAR cells, RARα; conditions: for EC50: HeLa ERE Luc-hRAR cells, dose-response 10000 nM-0.04 nM, 18 hours incubation; for RARα Comments: agonist type (total/partial); for RARα Efficacy: normalized to basal control and maximum efficacy control CD0193 100 nM
T2 construct: expressed in transfected cells; line from Prof; Ballaguer, INSERM 439, Montpellier
T2 sequence (P10276 183-417 limits assumed): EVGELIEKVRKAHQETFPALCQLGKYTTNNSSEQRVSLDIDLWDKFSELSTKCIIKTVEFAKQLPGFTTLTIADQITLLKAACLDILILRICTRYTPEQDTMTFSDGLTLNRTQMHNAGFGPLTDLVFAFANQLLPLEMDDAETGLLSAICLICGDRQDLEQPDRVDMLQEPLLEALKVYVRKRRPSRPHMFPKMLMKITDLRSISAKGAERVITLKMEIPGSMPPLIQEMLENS
Method: as §1, §2, §3, §4, §5

RARγ = target: T3, RARγ (Homo sapiens, UniProt P13631); assay: Transactivation reporter test (luciferase) in HeLa ERE Luc-hRAR cells, RARγ; conditions: for EC50: HeLa ERE Luc-hRAR cells, dose-response 10000 nM-0.04 nM, 18 hours incubation; for RARγ Comments: agonist type (total/partial); for RARγ Efficacy (%): normalized to basal control and maximum efficacy control CD0193 100 nM
T3 construct: expressed in transfected cells; line from Prof; Ballaguer, INSERM 439, Montpellier
T3 sequence (P13631 185-419 limits assumed): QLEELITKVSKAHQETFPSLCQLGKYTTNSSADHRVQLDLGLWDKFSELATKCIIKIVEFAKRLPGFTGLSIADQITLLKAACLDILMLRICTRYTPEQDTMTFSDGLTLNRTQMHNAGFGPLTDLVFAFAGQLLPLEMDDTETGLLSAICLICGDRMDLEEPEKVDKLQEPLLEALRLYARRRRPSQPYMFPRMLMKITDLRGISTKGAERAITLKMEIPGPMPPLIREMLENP
Method: as §1, §2, §3, §4, §5

| EC50 (RARβ) [µM] | RARβ Comments (RARβ) | RARβ Efficacy (%) (RARβ) | EC50 (RARα) [µM] | RARα Comments (RARα) | RARα Efficacy (RARα) [%] | EC50 (RARγ) [µM] | RARγ Comments (RARγ) | RARγ Efficacy (%) (RARγ) | Compound |
| --- | --- | --- | --- | --- | --- | --- | --- | --- | --- |
| 0.164 | partial agonist | 46 | 0.109 | partial agonist | 53 | 0.066 | partial agonist | 40 | COc1ccc(-c2cnc(-c3ccc(C(=O)O)cc3)s2)cc1C(C)(C)C [4-[5-(3-tert-butyl-4-methoxy-phenyl)-thiazol-2-yl]-benzoic acid] |
| 0.0062 | Total agonist | 95 | 0.65 | Total | 104 | 0.01 | Total | 88 | CCOCOc1ccc(-c2noc(-c3ccc(C(=O)O)cc3)n2)cc1C(C)(C)C [4-[3-(3-tert-butyl-4-ethoxymethoxy-phenyl)-[1,2,4]oxadiazol-5-yl]-benzoic acid] |
| 0.003 | Total agonist | 110 | 0.107 | Total | 106 | 0.0024 | Total | 110 | CC(C)(C)c1cc(-c2noc(-c3ccc(C(=O)O)cc3)n2)ccc1O [4-[3-(3-tert-butyl-4-hydroxy-phenyl)-[1,2,4]oxadiazol-5-yl]-benzoic acid] |
| 0.0038 | Total agonist | 92 | 0.255 | Total | 105 | 0.0093 | Total | 96 | CCOc1ccc(-c2noc(-c3ccc(C(=O)O)cc3)n2)cc1C(C)(C)C [4-[3-(3-tert-butyl-4-ethoxy-phenyl)-[1,2,4]oxadiazol-5-yl]-benzoic acid] |
| 0.00056 | Total agonist | 107 | 0.09 | Total | 80 | 0.0009 | Total | 102 | CCOCOc1ccc(-c2noc(-c3ccc(C(=O)O)cc3)n2)cc1C1(C)CCCCC1 [4-{3-[4-ethoxymethoxy-3-(1-methyl-cyclohexyl)-phenyl]-[1,2,4]oxadiazol-5-yl}-benzoic acid] |
| 0.635 | Total agonist | 90 | 3.17 | Total | 68 | 1.03 | Total | 74 | CCCOc1ccc(-c2cnc(-c3ccc(C(=O)O)cc3)s2)cc1C1(C)CCCCC1 [4-{5-[3-(1-methyl-cyclohexyl)-4-propoxy-phenyl]-thiazol-2-yl}-benzoic acid] |

| Compound | EC50 (RARβ) [µM] | RARβ Comments (RARβ) | RARβ Efficacy (%) (RARβ) | EC50 (RARα) [µM] | RARα Comments (RARα) | RARα Efficacy (RARα) [%] | EC50 (RARγ) [µM] | RARγ Comments (RARγ) | RARγ Efficacy (%) (RARγ) |
| --- | --- | --- | --- | --- | --- | --- | --- | --- | --- |
| CC1(C)CCC(C)(C)c2cc(-c3cnc(-c4ccc(C(=O)O)cc4)s3)ccc21 [4-[5-(5,5,8,8-tetramethyl-5,6,7,8-tetrahydro-naphthalen-2-yl)-thiazol-2-yl]-benzoic acid] | 0.052 | Total agonist | 110 | 9.79 | Total | 64 | 0.162 | Total | 78 |
